Reference: ChEMBL document CHEMBL1201862, “PubChem BioAssay data set” (2004)
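A five-concentration, 48-hour dose response in 96-well plates underlies each endpoint, interpolated linearly between surrounding concentrations. GI50 is the concentration that inhibits growth by half.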 Active and inactive are the calls of the source. No stated cut-off is given here; in the data, active = GI50 up to about 1.1 µM and inactive = higher.

Tests used:
Assay in all cases: inhibition of tumour cell growth, NCI panel, 48 h
HT-29 = test system: HT-29
KM12 = test system: KM12
HOP-62 = test system: HOP-62
NCI-H226 = test system: NCI-H226
A549 = test system: A549
HOP-92 = test system: HOP-92
HCC 2998 = test system: HCC 2998
RPMI-8226 = test system: RPMI-8226
RXF 393 = test system: RXF 393
HCT-116 = test system: HCT-116
HL-60 = test system: HL-60
A498 = test system: A498
OVCAR-3 = test system: OVCAR-3
SF-268 = test system: SF-268
CCRF-CEM = test system: CCRF-CEM
OVCAR-8 = test system: OVCAR-8
SK-MEL-2 = test system: SK-MEL-2
EKVX = test system: EKVX

Measured: GI50

C[C@@H](N[C@H]1CCC[C@@H]1O)c1ccccc1.C[C@@H](N[C@H]1CCC[C@H]1O)c1ccccc1
inactive: HT-29 38.1 µM | KM12 41.4 µM | HOP-62 51.9 µM | NCI-H226 19.9 µM | A549 > 100 µM | HOP-92 30.7 µM | HCC 2998 65.8 µM | RPMI-8226 53.7 µM | RXF 393 > 100 µM | HCT-116 34.9 µM | HL-60 43.6 µM | A498 > 100 µM | OVCAR-3 > 100 µM | SF-268 > 100 µM | CCRF-CEM 89.9 µM | OVCAR-8 > 100 µM | SK-MEL-2 > 100 µM | EKVX > 100 µM

COc1ccc2oc(-c3ccncc3)cc(=O)c2c1
inactive: HT-29 > 100 µM | KM12 84.5 µM | HOP-62 > 100 µM | NCI-H226 > 100 µM | HOP-92 37.5 µM | HCC 2998 > 100 µM | RPMI-8226 > 100 µM | RXF 393 > 100 µM | HCT-116 > 100 µM | HL-60 > 100 µM | A498 > 100 µM | OVCAR-3 > 100 µM | SF-268 67.6 µM | CCRF-CEM 81.1 µM | SK-MEL-2 > 100 µM

NNC(=S)N/N=C(\CCCC(=O)NCCc1ccccc1)CC(=O)c1ccccc1
inactive: HT-29 > 100 µM | KM12 > 100 µM | HOP-62 > 100 µM | A549 > 100 µM | HOP-92 > 100 µM | HCC 2998 > 100 µM | RXF 393 > 100 µM | HCT-116 > 100 µM | HL-60 > 100 µM | A498 > 100 µM | OVCAR-3 > 100 µM | SF-268 > 100 µM | OVCAR-8 > 100 µM | SK-MEL-2 > 100 µM | EKVX > 100 µM

N#Cc1ccc(/C=C(/C(=O)c2ccccc2)c2ccccc2)cc1
inactive: HT-29 8.18 µM | KM12 3.24 µM | HOP-62 17.9 µM | NCI-H226 16.7 µM | A549 16.9 µM | HOP-92 14 µM | HCC 2998 16.9 µM | RPMI-8226 2.59 µM | RXF 393 17.8 µM | HCT-116 4.18 µM | HL-60 2.67 µM | A498 17.9 µM | OVCAR-3 16.1 µM | SF-268 15.2 µM | CCRF-CEM 3.19 µM | OVCAR-8 6.41 µM | SK-MEL-2 15 µM | EKVX 18.8 µM

C[C@]12C/C(=C/O)C(=O)C(O)=C1CC[C@@H]1C2CC[C@@]2(C)C1CC[C@@H]2O (stereo partly drawn)
inactive: HT-29 25.3 µM | KM12 25.6 µM | HOP-62 46.7 µM | NCI-H226 19.6 µM | A549 57.8 µM | HOP-92 23.1 µM | RPMI-8226 17.6 µM | RXF 393 20.7 µM | HL-60 17.3 µM | A498 23.6 µM | OVCAR-3 17.9 µM | SF-268 24.5 µM | CCRF-CEM 18.4 µM | OVCAR-8 27.1 µM | SK-MEL-2 19.9 µM | EKVX 26.3 µM

COc1ccc2c(c1O)C(=O)C(CCC(=O)O)CC2 (stereo not drawn)
inactive: HT-29 > 100 µM | HOP-62 > 100 µM | A549 > 100 µM | HOP-92 > 100 µM | HCC 2998 > 100 µM | RPMI-8226 > 100 µM | RXF 393 > 100 µM | HCT-116 > 100 µM | HL-60 > 100 µM | A498 > 100 µM | OVCAR-3 > 100 µM | CCRF-CEM > 100 µM | OVCAR-8 > 100 µM | EKVX > 100 µM

Cc1cccc(=O)c([O-])c1.Cc1cccc(=O)c([O-])c1.[Bi+3].[Cl-]
inactive: HT-29 11.4 µM | KM12 11.6 µM | HOP-62 14 µM | NCI-H226 18.1 µM | A549 12.9 µM | HOP-92 6.01 µM | HCC 2998 11.5 µM | RPMI-8226 3.42 µM | RXF 393 8.39 µM | HCT-116 3.33 µM | HL-60 3 µM | A498 16.5 µM | OVCAR-3 2.74 µM | SF-268 6.61 µM | CCRF-CEM 2.18 µM | OVCAR-8 3.72 µM | SK-MEL-2 16.8 µM | EKVX 15.9 µM

OCC(O)COc1ccc(F)cc1 (stereo not drawn)
inactive: HT-29 > 100 µM | KM12 > 100 µM | HOP-62 > 100 µM | NCI-H226 > 100 µM | A549 > 100 µM | HOP-92 > 100 µM | HCC 2998 > 100 µM | RXF 393 > 100 µM | HCT-116 > 100 µM | HL-60 > 100 µM | A498 > 100 µM | OVCAR-3 > 100 µM | SF-268 > 100 µM | CCRF-CEM > 100 µM | OVCAR-8 > 100 µM | SK-MEL-2 > 100 µM | EKVX > 100 µM

CC(=O)O[C@H]1CC[C@@]2(C)C(=CC[C@H]3C4=CC=C(C(C)=O)[C@@]4(C)CCC32)C1 (stereo partly drawn)
inactive: HT-29 34.4 µM | KM12 19.9 µM | HOP-62 > 100 µM | NCI-H226 15 µM | A549 36.4 µM | HOP-92 27.6 µM | HCC 2998 48.4 µM | RPMI-8226 15.3 µM | RXF 393 26.5 µM | HCT-116 15.6 µM | HL-60 18 µM | A498 32.4 µM | OVCAR-3 35.9 µM | SF-268 32.4 µM | CCRF-CEM 21.4 µM | OVCAR-8 21.8 µM | EKVX 13.1 µM

NC(=O)c1ncn2c1NCC1OC2C(O)C1O (stereo not drawn)
inactive: HT-29 > 100 µM | KM12 > 100 µM | HOP-62 > 100 µM | NCI-H226 > 100 µM | A549 > 100 µM | HOP-92 > 100 µM | HCC 2998 > 100 µM | RXF 393 > 100 µM | HCT-116 > 100 µM | HL-60 > 100 µM | A498 > 100 µM | OVCAR-3 > 100 µM | SF-268 > 100 µM | CCRF-CEM > 100 µM | OVCAR-8 > 100 µM | SK-MEL-2 > 100 µM | EKVX > 100 µM

CC(=O)N(C)C=C1C(=O)N(C)C(=O)N(C)C1=O
inactive: HT-29 > 100 µM | KM12 > 100 µM | NCI-H226 > 100 µM | A549 > 100 µM | HOP-92 > 100 µM | HCC 2998 > 100 µM | RPMI-8226 > 100 µM | RXF 393 > 100 µM | HCT-116 > 100 µM | HL-60 > 100 µM | A498 > 100 µM | OVCAR-3 > 100 µM | CCRF-CEM > 100 µM | OVCAR-8 > 100 µM | SK-MEL-2 > 100 µM | EKVX > 100 µM

CC(C)CCCC(C)[C@H]1CCC2[C@@H]3CCC4Nc5nocc5C[C@]4(C)C3CC[C@@]21C (stereo partly drawn)
inactive: HT-29 18.5 µM | KM12 19.9 µM | HOP-62 47.1 µM | NCI-H226 19.9 µM | A549 21.2 µM | HCC 2998 15.5 µM | RPMI-8226 20.3 µM | RXF 393 14.8 µM | HCT-116 18.4 µM | HL-60 9.02 µM | A498 21.6 µM | OVCAR-3 5.61 µM | SF-268 17.2 µM | CCRF-CEM 7.23 µM | OVCAR-8 12.6 µM | SK-MEL-2 20.7 µM | EKVX 16.1 µM
